This is an account of results in patent publication US6949542B2, “Dihydro-benzo[b][1,4]diazepin-2-one derivatives” (Hoffman-La Roche Inc., priority 2002, dated 2005).

One may read the melting point as the temperature, or range, at which the solid turns liquid. `Cc1cc(-c2cccc(C3=Nc4cc(C)c(C(F)(F)F)cc4NC(=O)C3)c2)ncn1` [Example 308, 7-Methyl-4-[3-(6-methyl-pyrimidin-4-yl)-phenyl]-8-trifluoromethyl-1,3-dihydro-benzo[b][1,4]diazepin-2-one]: the melting point was in the range of 227 to 230 °C. Compound `Cc1cc(-c2cccc(C3=Nc4cc(C)c(Cl)cc4NC(=O)C3)c2)ncn1` [Example 309, 8-Chloro-7-methyl-4-[3-(6-methyl-pyrimidin-4-yl)-phenyl]-1,3-dihydro-benzo[b][1,4]diazepin-2-one] yielded a melting point of 226 to 227 °C. As to `Cc1cc(-c2cccc(C3=Nc4cc(N(C)C)c(C(F)(F)F)cc4NC(=O)C3)c2)ncn1` [Example 310, 7-Dimethylamino-4-[3-(6-methyl-pyrimidin-4-yl)-phenyl]-8-trifluoromethyl-1,3-dihydro-benzo[b][1,4]diazepin-2-one], the melting point is 232 to 236 °C. The same measure for `Cc1cc(-c2cccc(C3=Nc4ccc(Cl)cc4NC(=O)C3)c2)ncn1` [Example 312, 8-Chloro-4-[3-(6-methyl-pyrimidin-4-yl)-phenyl]-1,3-dihydro-benzo[b][1,4]diazepin-2-one]: 199 to 200 °C. The result for `Cc1cc(-c2cccc(C3=Nc4cc(Cl)c(Cl)cc4NC(=O)C3)c2)ncn1` [Example 313, 7,8-Dichloro-4-[3-(6-methyl-pyrimidin-4-yl)-phenyl]-1,3-dihydro-benzo[b][1,4]diazepin-2-one] reads 220 to 222 °C. Compound `Cc1cc(-c2cccc(C3=Nc4ccc(-n5cccc5)cc4NC(=O)C3)c2)ncn1` [Example 314, 4-[3-(6-Methyl-pyrimidin-4-yl)-phenyl]-8-pyrrol-1-yl-1,3-dihydro-benzo[b][1,4]diazepin-2-one] gave a melting point of 242 to 243 °C.

Consider `Cc1cc(-c2cccc(C3=Nc4cc(C)c(C(F)(F)F)cc4NC(=O)C3)c2)nc(N)n1` [Example 315, 4-[3-(2-Amino-6-methyl-pyrimidin-4-yl)-phenyl]-7-methyl-8-trifluoromethyl-1,3-dihydro-benzo[b][1,4]diazepin-2-one], for which the melting point lay in the range of 248 to 250 °C. The result for `Cc1cc(-c2cccc(C3=Nc4cc(C)c(Cl)cc4NC(=O)C3)c2)nc(N)n1` [Example 316, 4-[3-(2-Amino-6-methyl-pyrimidin-4-yl)-phenyl]-8-chloro-7-methyl-1,3-dihydro-benzo[b][1,4]diazepin-2-one] reads 242 to 243 °C; that for `Cc1cc(-c2cccc(C3=Nc4cc(N(C)C)c(C(F)(F)F)cc4NC(=O)C3)c2)nc(N)n1` [Example 317, 4-[3-(2-Amino-6-methyl-pyrimidin-4-yl)-phenyl]-7-dimethylamino-8-trifluoromethyl-1,3-dihydro-benzo[b][1,4]diazepin-2-one], 250 to 253 °C; that for `CNc1nc(C)cc(-c2cccc(C3=Nc4cc(C)c(C(F)(F)F)cc4NC(=O)C3)c2)n1` [Example 318, 7-Methyl-4-[3-(6-methyl-2-methylamino-pyrimidin-4-yl)-phenyl]-8-trifluoromethyl-1,3-dihydro-benzo[b][1,4]diazepin-2-one], 241 to 243 °C. `CNc1nc(C)cc(-c2cccc(C3=Nc4cc(C)c(Cl)cc4NC(=O)C3)c2)n1` [Example 319, 8-Chloro-7-methyl-4-[3-(6-methyl-2-methylamino-pyrimidin-4-yl)-phenyl]-1,3-dihydro-benzo[b][1,4]diazepin-2-one] displayed a melting point of 235 to 237 °C. The result for `Cc1cc(-c2cccc(C3=Nc4cc(C)c(C(F)(F)F)cc4NC(=O)C3)c2)nc(N(C)C)n1` [Example 320, 4-[3-(2-Dimethylamino-6-methyl-pyrimidin-4-yl)-phenyl]-7-methyl-8-trifluoromethyl-1,3-dihydro-benzo[b][1,4]diazepin-2-one] reads 248 to 252 °C. The same measure for `Cc1cc(-c2cccc(C3=Nc4cc(C)c(Cl)cc4NC(=O)C3)c2)nc(N(C)C)n1` [Example 321, 8-Chloro-4-[3-(2-dimethylamino-6-methyl-pyrimidin-4-yl)-phenyl]-7-methyl-1,3-dihydro-benzo[b][1,4]diazepin-2-one]: 248 to 250 °C. The result for `Cc1cc(-c2cccc(C3=Nc4cc(C)c(Cl)cc4NC(=O)C3)c2)nc(NCCO)n1` [Example 323, 8-Chloro-4-{3-[2-(2-hydroxy-ethylamino)-6-methyl-pyrimidin-4-yl]-phenyl}-7-methyl-1,3-dihydro-benzo[b][1,4]diazepin-2-one] reads 197 to 199 °C; that for `COCCNc1nc(C)cc(-c2cccc(C3=Nc4cc(C)c(C(F)(F)F)cc4NC(=O)C3)c2)n1` [Example 324, 4-{3-[2-(2-Methoxy-ethylamino)-6-methyl-pyrimidin-4-yl]-phenyl}-7-methyl-8-trifluoromethyl-1,3-dihydro-benzo[b][1,4]diazepin-2-one], 236 to 238 °C; that for `COCCNc1nc(C)cc(-c2cccc(C3=Nc4cc(C)c(Cl)cc4NC(=O)C3)c2)n1` [Example 325, 8-Chloro-4-{3-[2-(2-methoxy-ethylamino)-6-methyl-pyrimidin-4-yl]-phenyl}-7-methyl-1,3-dihydro-benzo[b][1,4]diazepin-2-one], 222 to 224 °C.

The compound `Cc1cc2c(cc1C(F)(F)F)NC(=O)CC(c1cccc(-c3cc(N)ncn3)c1)=N2` [Example 328, 4-[3-(6-Amino-pyrimidin-4-yl)-phenyl]-7-methyl-8-trifluoromethyl-1,3-dihydro-benzo[b][1,4]diazepin-2-one] displayed a melting point of 201 to 205 °C. With `Cc1cc2c(cc1Cl)NC(=O)CC(c1cccc(-c3cc(N)ncn3)c1)=N2` [Example 329, 4-[3-(6-Amino-pyrimidin-4-yl)-phenyl]-8-chloro-7-methyl-1,3-dihydro-benzo[b][1,4]diazepin-2-one], the melting point fell in the range of 228 to 233 °C. The result for `CNc1cc(-c2cccc(C3=Nc4cc(C)c(C(F)(F)F)cc4NC(=O)C3)c2)ncn1` [Example 330, 7-Methyl-4-[3-(6-methylamino-pyrimidin-4-yl)-phenyl]-8-trifluoromethyl-1,3-dihydro-benzo[b][1,4]diazepin-2-one] reads 232 to 233 °C; that for `CNc1cc(-c2cccc(C3=Nc4cc(C)c(Cl)cc4NC(=O)C3)c2)ncn1` [Example 331, 8-Chloro-7-methyl-4-[3-(6-methylamino-pyrimidin-4-yl)-phenyl]-1,3-dihydro-benzo[b][1,4]diazepin-2-one], 240 to 243 °C. The result for `Cc1cc2c(cc1C(F)(F)F)NC(=O)CC(c1cccc(-c3cc(N(C)C)ncn3)c1)=N2` [Example 332, 4-[3-(6-Dimethylamino-pyrimidin-4-yl)-phenyl]-7-methyl-8-trifluoromethyl-1,3-dihydro-benzo[b][1,4]diazepin-2-one] reads 239 to 242 °C. In turn, `Cc1cc2c(cc1Cl)NC(=O)CC(c1cccc(-c3cc(N(C)C)ncn3)c1)=N2` [Example 333, 8-Chloro-4-[3-(6-dimethylamino-pyrimidin-4-yl)-phenyl]-7-methyl-1,3-dihydro-benzo[b][1,4]diazepin-2-one] displayed a melting point of 226 to 228 °C.

With `COCCNc1cc(-c2cccc(C3=Nc4cc(C)c(Cl)cc4NC(=O)C3)c2)ncn1` [Example 334, 8-Chloro-4-{3-[6-(2-methoxy-ethylamino)-pyrimidin-4-yl]-phenyl}-7-methyl-1,3-dihydro-benzo[b][1,4]diazepin-2-one], the melting point is 211 to 213 °C.

`Cc1cc2c(cc1Cl)NC(=O)CC(c1cccc(-c3ncccn3)c1)=N2` [Example 335, 8-Chloro-7-methyl-4-(3-pyrimidin-2-yl-phenyl)-1,3-dihydro-benzo[b][1,4]diazepin-2-one]: the melting point lay in the range of 223 to 227 °C.

Take `CN(C)c1cc2c(cc1C(F)(F)F)NC(=O)CC(c1cccc(-c3ncccn3)c1)=N2` [Example 337, 7-Dimethylamino-4-(3-pyrimidin-2-yl-phenyl)-8-trifluoromethyl-1,3-dihydro-benzo[b][1,4]diazepin-2-one]: the melting point lay in the range of 221 to 223 °C. The result for `O=C1CC(c2cccc(-c3ncccn3)c2)=Nc2ccc(C(F)(F)F)cc2N1` [Example 338, 4-(3-Pyrimidin-2-yl-phenyl)-8-trifluoromethyl-1,3-dihydro-benzo[b][1,4]diazepin-2-one] reads 236 to 237 °C. The result for `O=C1CC(c2cccc(-c3ncccn3)c2)=Nc2ccc(Cl)cc2N1` [Example 339, 8-Chloro-4-(3-pyrimidin-2-yl-phenyl)-1,3-dihydro-benzo[b][1,4]diazepin-2-one] reads 217 to 222 °C; that for `O=C1CC(c2cccc(-c3ncccn3)c2)=Nc2cc(Cl)c(Cl)cc2N1` [Example 340, 7,8-Dichloro-4-(3-pyrimidin-2-yl-phenyl)-1,3-dihydro-benzo[b][1,4]diazepin-2-one], 227 to 230 °C; that for `Cc1nnc(-c2cccc(C3=Nc4cc(N(C)C)c(C(F)(F)F)cc4NC(=O)C3)c2)nc1C` [Example 343, 7-Dimethylamino-4-[3-(5,6-dimethyl-[1,2,4]triazin-3-yl)-phenyl]-8-trifluoromethyl-1,3-dihydro-benzo[b][1,4]diazepin-2-one], 233 to 236 °C. As for `Cc1cc(C2CC2)ncc1-c1cccc(C2=Nc3ccc(C(F)(F)F)cc3NC(=O)C2)c1` [Example 344, 4-[3-(6-Cyclopropyl-4-methyl-pyridin-3-yl)-phenyl]-8-trifluoromethyl-1,3-dihydro-benzo[b][1,4]diazepin-2-one], the melting point was 119 °C. The result for `O=C1CC(c2cccc(-c3ccnc(C4CC4)c3)c2)=Nc2ccc(C(F)(F)F)cc2N1` [Example 346, 4-[3-(2-Cyclopropyl-pyridin-4-yl)-phenyl]-8-trifluoromethyl-1,3-dihydro-benzo[b][1,4]diazepin-2-one] reads 181 °C; that for `Cc1cc2c(cc1C(F)(F)F)NC(=O)CC(c1cccc(-c3ccnc(C4CC4)c3)c1)=N2` [Example 347, 4-[3-(2-Cyclopropyl-pyridin-4-yl)-phenyl]-7-methyl-8-trifluoromethyl-1,3-dihydro-benzo[b][1,4]diazepin-2-one], 232 °C.
